Test results reported in ChEMBL document CHEMBL1201862, “PubChem BioAssay data set” (2004).
The source made the active and inactive calls.

What was measured:
[1] = cytotoxicity toward DRD oncogenic fibroblasts, dose response, cell-based, non-viral oncogenic, luminescence (AID 1934); assay type: functional; conditions: Homo sapiens
[2] = target: T1, Sentrin-specific protease 6 (Homo sapiens, UniProt Q9GZR1); assay type: functional;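 note: Luminescence-based dose-response confirmatory assay of SENP6 inhibition, following up an ultra-high-throughput screen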
T1 sequence (Q9GZR1 whole entry): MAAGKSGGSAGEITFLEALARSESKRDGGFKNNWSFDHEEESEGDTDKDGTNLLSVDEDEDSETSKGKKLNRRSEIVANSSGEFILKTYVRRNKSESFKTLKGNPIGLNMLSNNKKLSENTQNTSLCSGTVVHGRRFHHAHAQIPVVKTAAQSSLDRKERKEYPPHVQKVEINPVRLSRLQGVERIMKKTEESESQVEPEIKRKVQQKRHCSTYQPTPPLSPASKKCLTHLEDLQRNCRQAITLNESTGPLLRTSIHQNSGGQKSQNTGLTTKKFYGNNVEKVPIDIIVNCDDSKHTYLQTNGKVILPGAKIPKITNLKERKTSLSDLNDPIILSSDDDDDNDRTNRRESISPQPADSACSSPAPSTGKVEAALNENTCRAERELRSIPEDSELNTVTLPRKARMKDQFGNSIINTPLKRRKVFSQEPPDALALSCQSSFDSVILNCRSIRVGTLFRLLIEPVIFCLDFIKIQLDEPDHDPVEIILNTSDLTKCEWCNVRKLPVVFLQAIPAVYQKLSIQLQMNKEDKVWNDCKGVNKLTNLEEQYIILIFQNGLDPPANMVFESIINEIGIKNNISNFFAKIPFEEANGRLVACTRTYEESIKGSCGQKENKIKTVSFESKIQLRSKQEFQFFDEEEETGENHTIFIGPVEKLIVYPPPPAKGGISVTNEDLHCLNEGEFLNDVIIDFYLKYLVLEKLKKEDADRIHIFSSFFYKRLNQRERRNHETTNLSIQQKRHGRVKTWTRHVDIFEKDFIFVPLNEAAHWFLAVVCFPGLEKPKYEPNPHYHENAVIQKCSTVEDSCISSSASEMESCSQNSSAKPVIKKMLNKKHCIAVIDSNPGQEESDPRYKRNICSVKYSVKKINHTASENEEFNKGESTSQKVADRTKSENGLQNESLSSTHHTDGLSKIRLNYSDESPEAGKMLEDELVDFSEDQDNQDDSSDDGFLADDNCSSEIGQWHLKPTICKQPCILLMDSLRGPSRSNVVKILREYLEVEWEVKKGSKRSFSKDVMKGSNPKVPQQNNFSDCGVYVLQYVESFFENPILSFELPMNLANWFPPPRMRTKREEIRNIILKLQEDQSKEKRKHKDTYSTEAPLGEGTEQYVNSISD

[3] = tested on: BJ; assay: cytotoxicity toward BJ-TERT fibroblasts, dose response, cell-based, RAS-independent, luminescence (AID 1933); assay type: functional; conditions: Homo sapiens
[4] = Luminescence Cell-Based Dose Response HTS to Identify Activators of Luciferase Translation or Activity in H4 […] Cells. [Related pubchem assays: 1829 (Project Summary), 1814 (Primary HTS)]; assay type: functional
[5] = tested on: BJ; assay: cytotoxicity toward BJ-TERT-LT-ST fibroblasts, dose response, cell-based, RAS-independent, luminescence (AID 1935); assay type: functional; conditions: Homo sapiens;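 note: BJ fibroblasts immortalized with TERT plus LT and ST oncogenes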
[6] = tested on: H4; assay: Luminescence Cell-Based Dose Response HTS to Identify Activators of 5'UTR Stem-Loop Driven Prion Protein mRNA Translation in H4 Neuroglioblastoma Cells. [Related pubchem assays: 1829 (Project Summary), 1814 (Primary HTS)]; assay type: functional; conditions: Homo sapiens
[7] = target: T2, Caspase-3 (Homo sapiens, UniProt P42574); assay type: functional;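 note: Dose-response selectivity test against caspase-3 for candidate inhibitors of sentrin-specific proteases (SENPs)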
T2 sequence (P42574 whole entry): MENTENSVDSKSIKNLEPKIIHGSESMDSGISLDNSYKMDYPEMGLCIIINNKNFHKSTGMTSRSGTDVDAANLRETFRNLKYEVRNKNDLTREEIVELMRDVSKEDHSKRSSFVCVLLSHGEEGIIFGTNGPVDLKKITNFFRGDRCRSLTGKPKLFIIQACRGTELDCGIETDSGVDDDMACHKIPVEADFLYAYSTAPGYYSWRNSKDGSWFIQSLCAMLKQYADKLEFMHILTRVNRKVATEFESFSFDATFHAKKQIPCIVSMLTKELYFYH

[8] = target: T3, Sentrin-specific protease 8 (Homo sapiens, UniProt Q96LD8); assay type: functional;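 note: luminescence read-out of SENP8 inhibition, dose-response confirmation following an ultra-high-throughput screen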
T3 sequence (Q96LD8 whole entry): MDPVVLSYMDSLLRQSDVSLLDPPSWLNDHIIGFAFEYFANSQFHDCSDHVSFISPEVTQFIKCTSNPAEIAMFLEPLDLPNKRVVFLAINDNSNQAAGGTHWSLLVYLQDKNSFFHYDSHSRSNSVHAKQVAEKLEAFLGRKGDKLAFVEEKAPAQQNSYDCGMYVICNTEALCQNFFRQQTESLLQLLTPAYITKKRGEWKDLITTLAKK

[9] = target: T4, Sentrin-specific protease 7 (Homo sapiens, UniProt Q9BQF6); assay type: functional;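 note: Luminescence-based dose-response confirmation of ultra-high-throughput screening hits, measuring inhibition of SENP7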
T4 sequence (Q9BQF6 whole entry): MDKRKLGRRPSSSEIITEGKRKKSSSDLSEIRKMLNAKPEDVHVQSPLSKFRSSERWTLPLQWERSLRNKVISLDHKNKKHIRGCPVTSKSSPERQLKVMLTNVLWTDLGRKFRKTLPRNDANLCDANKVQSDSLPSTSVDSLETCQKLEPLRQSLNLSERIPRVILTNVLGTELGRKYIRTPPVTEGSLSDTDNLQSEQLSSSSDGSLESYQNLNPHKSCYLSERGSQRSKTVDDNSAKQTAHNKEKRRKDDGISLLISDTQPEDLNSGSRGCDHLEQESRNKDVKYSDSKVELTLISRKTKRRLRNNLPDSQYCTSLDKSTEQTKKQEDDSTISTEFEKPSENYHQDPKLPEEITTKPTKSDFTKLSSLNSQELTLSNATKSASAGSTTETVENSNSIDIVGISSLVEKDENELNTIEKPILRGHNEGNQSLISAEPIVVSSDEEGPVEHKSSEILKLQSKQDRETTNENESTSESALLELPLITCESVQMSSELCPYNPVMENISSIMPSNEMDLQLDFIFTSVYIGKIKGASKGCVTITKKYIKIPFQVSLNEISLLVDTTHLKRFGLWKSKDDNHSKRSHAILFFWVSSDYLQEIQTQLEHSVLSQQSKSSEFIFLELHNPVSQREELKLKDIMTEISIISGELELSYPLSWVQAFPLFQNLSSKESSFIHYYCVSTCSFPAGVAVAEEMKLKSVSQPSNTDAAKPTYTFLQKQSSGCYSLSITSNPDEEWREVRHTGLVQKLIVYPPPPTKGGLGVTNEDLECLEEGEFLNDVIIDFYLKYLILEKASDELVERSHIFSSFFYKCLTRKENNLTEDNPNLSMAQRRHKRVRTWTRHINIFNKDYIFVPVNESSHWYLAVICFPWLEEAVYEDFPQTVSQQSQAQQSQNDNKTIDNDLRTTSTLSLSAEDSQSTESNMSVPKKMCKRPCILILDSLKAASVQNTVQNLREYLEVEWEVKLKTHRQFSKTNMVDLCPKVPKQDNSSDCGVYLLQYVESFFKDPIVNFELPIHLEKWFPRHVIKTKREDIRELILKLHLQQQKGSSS

[10] = tested on: BJ; assay: cells; assay type: functional, cell-based; conditions: Homo sapiens
[11] = target: T5, Adenosylmethionine-8-amino-7-oxononanoate aminotransferase (Mycobacterium tuberculosis, UniProt P9WQ81); assay: Mycobacterium tuberculosis BioA enzyme inhibitor Measured in Biochemical System Using Plate Reader - 2163-02_Inhibitor_Dose_CherryPick_Activity.; assay type: functional, Mycobacterium tuberculosis UT205
T5 sequence (P9WQ81 whole entry): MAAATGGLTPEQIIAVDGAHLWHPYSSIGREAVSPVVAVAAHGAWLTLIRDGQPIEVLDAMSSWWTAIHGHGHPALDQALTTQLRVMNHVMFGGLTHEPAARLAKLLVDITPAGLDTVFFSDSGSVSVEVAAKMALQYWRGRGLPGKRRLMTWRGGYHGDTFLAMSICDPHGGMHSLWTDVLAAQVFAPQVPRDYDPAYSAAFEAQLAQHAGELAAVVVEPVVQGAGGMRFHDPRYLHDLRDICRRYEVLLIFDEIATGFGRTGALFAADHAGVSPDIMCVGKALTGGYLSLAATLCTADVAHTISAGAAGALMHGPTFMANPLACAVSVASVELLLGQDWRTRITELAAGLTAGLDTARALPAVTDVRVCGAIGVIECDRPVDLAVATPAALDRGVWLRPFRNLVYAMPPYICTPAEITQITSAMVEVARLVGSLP

[12] = tested on: P388; assay: cells; assay type: functional; conditions: Mus musculus
[13] = tested on: SN12K1; assay: cells; assay type: functional; conditions: Homo sapiens
[14] = tested on: P388/ADR; assay: cells; assay type: functional; conditions: Mus musculus
[15] = HEK293 cell cytotoxicity, dose response, cytotoxicity control, plate reader, cherry-picked samples (AID 743446); assay type: functional, cell-based
[16] = MC4R antagonists, dose response, counter-screen for LGR2 antagonist project, cell-based, plate reader, cherry pick (AID 743444); assay type: functional;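 note: transfected HEK 293 cells stimulated with alpha-MSH peptide; potency of inhibitors of the alpha-MSH evoked signal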
[17] = LGR2 antagonists, dose response, cell-based, HEK293, CRE-luciferase reporter, cherry pick, set 2 (AID 743343); assay type: functional;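 note: transfected cells were stimulated with diluted bursicon conditioned medium after compound addition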
[18] = A549 cell cytotoxicity, dose response, cytotoxicity control, plate reader, cherry-pick, antagonist series (AID 743412); assay type: functional, cell-based
[19] = target: Voltage-dependent T-type calcium channel subunit alpha-1H (Homo sapiens, UniProt O95180); assay type: functional;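 note: channel activity triggered by adding a high calcium stimulation buffer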
Voltage-dependent T-type calcium channel subunit alpha-1H, sequence (O95180 whole entry): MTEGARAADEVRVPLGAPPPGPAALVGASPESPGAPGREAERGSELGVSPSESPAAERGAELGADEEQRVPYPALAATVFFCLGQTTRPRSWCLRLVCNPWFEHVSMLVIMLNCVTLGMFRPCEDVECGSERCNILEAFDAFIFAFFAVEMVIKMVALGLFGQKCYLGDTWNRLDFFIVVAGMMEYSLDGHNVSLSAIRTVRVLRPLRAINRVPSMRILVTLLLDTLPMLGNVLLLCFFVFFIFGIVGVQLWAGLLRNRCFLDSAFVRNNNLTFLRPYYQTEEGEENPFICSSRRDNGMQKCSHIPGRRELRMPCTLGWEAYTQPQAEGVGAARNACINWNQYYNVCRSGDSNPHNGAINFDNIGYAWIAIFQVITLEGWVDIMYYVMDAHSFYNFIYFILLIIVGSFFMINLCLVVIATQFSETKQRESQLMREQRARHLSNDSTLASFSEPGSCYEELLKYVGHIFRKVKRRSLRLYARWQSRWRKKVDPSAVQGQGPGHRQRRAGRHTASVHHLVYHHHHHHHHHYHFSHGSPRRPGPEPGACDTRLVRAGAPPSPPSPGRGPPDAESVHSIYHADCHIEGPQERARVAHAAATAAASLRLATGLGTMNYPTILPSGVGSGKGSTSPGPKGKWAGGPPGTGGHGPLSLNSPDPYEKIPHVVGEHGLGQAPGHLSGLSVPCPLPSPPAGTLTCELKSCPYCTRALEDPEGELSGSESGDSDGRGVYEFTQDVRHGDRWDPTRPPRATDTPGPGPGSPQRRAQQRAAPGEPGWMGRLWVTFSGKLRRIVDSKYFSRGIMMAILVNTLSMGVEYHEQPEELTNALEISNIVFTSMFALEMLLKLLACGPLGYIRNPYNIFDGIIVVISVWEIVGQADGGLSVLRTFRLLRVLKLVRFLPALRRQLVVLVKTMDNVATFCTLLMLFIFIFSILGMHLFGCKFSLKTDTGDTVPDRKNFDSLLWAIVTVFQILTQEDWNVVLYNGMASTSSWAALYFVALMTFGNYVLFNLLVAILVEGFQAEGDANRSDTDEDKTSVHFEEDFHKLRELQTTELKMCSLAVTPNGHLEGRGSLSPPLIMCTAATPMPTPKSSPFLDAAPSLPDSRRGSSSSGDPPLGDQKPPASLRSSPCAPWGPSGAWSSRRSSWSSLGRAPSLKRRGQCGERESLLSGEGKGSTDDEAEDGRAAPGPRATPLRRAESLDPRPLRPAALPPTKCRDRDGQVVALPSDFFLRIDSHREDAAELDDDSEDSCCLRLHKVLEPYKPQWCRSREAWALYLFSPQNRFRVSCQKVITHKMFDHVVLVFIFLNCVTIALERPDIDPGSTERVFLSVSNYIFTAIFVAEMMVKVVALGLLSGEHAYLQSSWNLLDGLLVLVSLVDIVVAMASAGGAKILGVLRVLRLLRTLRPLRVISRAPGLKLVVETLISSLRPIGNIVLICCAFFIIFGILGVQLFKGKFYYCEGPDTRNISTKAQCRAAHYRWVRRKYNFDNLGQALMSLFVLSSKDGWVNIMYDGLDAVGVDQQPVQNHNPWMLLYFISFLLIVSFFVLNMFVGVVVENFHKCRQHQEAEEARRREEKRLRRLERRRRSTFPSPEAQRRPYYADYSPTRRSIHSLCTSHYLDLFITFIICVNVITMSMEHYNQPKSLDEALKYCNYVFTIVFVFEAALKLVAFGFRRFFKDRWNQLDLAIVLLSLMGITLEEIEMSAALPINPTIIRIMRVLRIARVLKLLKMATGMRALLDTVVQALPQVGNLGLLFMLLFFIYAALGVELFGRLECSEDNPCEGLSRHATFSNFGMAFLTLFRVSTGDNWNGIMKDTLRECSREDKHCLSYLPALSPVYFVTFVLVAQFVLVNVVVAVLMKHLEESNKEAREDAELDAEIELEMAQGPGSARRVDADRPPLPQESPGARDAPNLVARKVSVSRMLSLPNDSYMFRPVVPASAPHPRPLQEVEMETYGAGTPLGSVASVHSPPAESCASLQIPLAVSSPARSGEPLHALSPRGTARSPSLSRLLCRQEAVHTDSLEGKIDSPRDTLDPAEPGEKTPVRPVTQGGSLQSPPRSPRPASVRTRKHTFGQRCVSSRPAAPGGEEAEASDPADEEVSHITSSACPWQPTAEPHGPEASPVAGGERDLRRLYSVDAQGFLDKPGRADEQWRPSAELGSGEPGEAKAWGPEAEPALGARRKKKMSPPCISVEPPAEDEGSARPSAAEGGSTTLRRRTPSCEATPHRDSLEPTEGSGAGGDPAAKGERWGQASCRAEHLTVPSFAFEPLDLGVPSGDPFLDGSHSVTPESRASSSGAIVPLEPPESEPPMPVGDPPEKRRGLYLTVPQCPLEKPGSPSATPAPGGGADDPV

SMILES: CCOC(=O)Nc1ccc2nc(N3CCCCCC3)sc2c1
- EC50 [1]: 4.7 µM (inconclusive)
- IC50 [2]: 33.1 µM (active)
- EC50 [3]: 10.3 µM (inconclusive)
- EC50 [4]: 0.153 µM (active)
- EC50 [5]: 55.5 µM (inconclusive)
- EC50 [6]: > 120 µM (not active)
- IC50 [7]: 31.1 µM (active)
- IC50 [8]: 9.44 µM (active)
- IC50 [9]: 10.5 µM (active)
- EC50 [10]: 111 µM (active)

SMILES: CCNC(=O)[C@H]1[C@H](CO)[C@H]2Cn3c(ccc(-c4ccccc4)c3=O)[C@H]2N1C(=O)Cc1cccnc1
- AC50 [11]: 16.3 µM (active)

SMILES: N#C[C@H](OC1OC(COC2OC(CO)C(O)C(O)C2O)C(O)C(O)C1O)c1ccccc1 (some centres undefined)
- GI50 [12]: 232 µM (inactive)
- GI50 [13]: > 250 µM (inactive)
- GI50 [14]: 170 µM (inactive)

SMILES: C=C1C(C)C2C(Cc3ccccc3)NC(=O)C23C(OC(C)=O)/C=C/C(C)(O)CC(C)C/C=C/C3C1O (centres undefined)
- GI50 [12]: 0.608 µM (active)
- GI50 [13]: 0.0294 µM (active)
- GI50 [14]: 2.58 µM (inactive)

SMILES: CC1Cc2nc(SCC(=O)N3CCOCC3)n(-c3ccccc3)c(=O)c2S1 (centres undefined)
- AC50 [11]: 5.31 µM (active)

SMILES: O=C(Nc1cccc(Cl)c1)Nc1ccccc1C(=O)NCc1ccco1
- IC50 [2]: 4.44 µM (active)
- IC50 [7]: 21.4 µM (active)
- IC50 [8]: > 100 µM (inactive)
- IC50 [9]: 4.05 µM (active)

SMILES: CC(=O)c1ccc(N2CCN(C(=O)c3ccc4c(c3)OCO4)CC2)cc1
- AC50 [11]: 0.155 µM (active)

SMILES: C/C(=N\OC(=O)c1ccc(Cl)cc1)c1nccs1
- IC50 [2]: 11.7 µM (active)
- IC50 [7]: 15.1 µM (active)
- IC50 [8]: 19.2 µM (active)
- IC50 [9]: 2.63 µM (active)

SMILES: CCc1cc(-c2ccc3c(c2)COc2c4ccccc4nn2-3)on1
- AC50 [15]: 47.8 µM (active)
- AC50 [16]: 40.4 µM (active)
- AC50 [17]: 22.7 µM (active)
- AC50 [18]: > 52 µM (inactive)

SMILES: CNC(=O)ON(C(C)=O)C(=O)NC [CARACEMIDE]
- GI50 [12]: 16.4 µM (inactive)
- GI50 [13]: 50.9 µM (inactive)
- GI50 [14]: 21.4 µM (inactive)

SMILES: O=C(/C=C/c1ccccc1)n1cnnc1SC/C=C/c1ccccc1
- IC50 [2]: 15.2 µM (active)
- IC50 [7]: 37.3 µM (active)
- IC50 [8]: 25.6 µM (active)
- IC50 [9]: 8.8 µM (active)

SMILES: O=C(CCSc1nc(-c2ccco2)cc(C(F)(F)F)n1)N1CCN(c2ccccn2)CC1
- EC50 [19]: 6.47 µM (active)
